Tests used:
ACE = ACE (Homo sapiens, UniProt P12821); test: In vitro ACE inhibitory activity, DOJINDO ACE Kit-WST reagent box; assay type: biochemical
hypertensive animals = details: snake venom peptide; cited from earlier work

ACE, sequence (P12821 30-1306, species assumed): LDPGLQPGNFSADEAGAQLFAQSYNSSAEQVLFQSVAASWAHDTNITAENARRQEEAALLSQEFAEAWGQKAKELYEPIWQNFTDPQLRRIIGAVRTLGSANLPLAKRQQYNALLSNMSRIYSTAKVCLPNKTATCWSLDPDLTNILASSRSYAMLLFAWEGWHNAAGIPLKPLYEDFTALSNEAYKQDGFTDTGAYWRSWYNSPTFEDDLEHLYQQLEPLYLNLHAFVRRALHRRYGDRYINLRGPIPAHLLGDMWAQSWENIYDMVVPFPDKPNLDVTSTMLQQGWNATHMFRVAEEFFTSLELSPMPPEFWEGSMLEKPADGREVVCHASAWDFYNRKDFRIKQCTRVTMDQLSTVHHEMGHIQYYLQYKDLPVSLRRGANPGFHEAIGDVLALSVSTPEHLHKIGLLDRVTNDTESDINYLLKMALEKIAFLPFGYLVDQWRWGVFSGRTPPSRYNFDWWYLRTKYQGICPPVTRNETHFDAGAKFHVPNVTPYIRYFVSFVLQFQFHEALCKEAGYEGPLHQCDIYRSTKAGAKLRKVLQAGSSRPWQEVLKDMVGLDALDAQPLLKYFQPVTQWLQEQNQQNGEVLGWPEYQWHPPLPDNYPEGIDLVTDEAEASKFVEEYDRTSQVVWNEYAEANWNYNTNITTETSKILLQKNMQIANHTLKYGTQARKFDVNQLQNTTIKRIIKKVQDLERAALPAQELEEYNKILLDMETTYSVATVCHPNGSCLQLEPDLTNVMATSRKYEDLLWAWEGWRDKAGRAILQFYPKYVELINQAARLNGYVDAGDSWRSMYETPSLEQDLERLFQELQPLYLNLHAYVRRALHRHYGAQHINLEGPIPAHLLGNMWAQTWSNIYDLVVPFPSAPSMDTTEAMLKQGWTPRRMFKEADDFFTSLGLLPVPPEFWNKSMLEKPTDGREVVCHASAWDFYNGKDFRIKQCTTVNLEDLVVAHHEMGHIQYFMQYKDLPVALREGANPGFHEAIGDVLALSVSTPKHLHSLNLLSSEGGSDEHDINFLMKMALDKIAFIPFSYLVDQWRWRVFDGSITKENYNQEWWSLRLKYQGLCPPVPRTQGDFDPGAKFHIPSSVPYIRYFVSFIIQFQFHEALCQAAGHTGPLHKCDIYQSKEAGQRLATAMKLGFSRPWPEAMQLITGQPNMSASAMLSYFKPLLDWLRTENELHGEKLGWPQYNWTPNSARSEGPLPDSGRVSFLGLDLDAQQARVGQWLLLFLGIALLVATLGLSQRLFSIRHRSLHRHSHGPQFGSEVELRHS

Substance	ACE-inhibitory activity, comparison in words (ACE)	antihypertensive effect for hypertensive animals (hypertensive animals)
H-Asp-Arg-Tyr-OH [D2]	potencies are still higher than that of compound 144	–
Pyr-Trp-Pro-Arg-Pro-Gln-Ile-Pro-Pro	–	best antihypertensive effect for hypertensive animals
H-Leu-Arg-Asn-OH [D1]	potencies are still higher than that of compound 144	–

— article PMC12538393 (RSC Advances, 2025)
